# Measurements from patent US11622966B2 (A2A Pharmaceuticals, Inc., priority 2018, dated 2023).
# Entries after “also recorded” stand apart in the source; their conditions may differ.
# Legend:
# JIMT-1 cells [1] = assay: Western blot of mitotic arrest, DNA damage and apoptosis markers; type: cell-based, human; details: 24 hours, Western blot (FIG. 6C)
# [2] = test system: glioblastoma (GBM) xenografts; details: Polson et al., 2018; cited from earlier work
# [3] = test system: JIMT-1 breast cancer cell lines; assay: Cell viability assay (Cell Titer Glo), JIMT-1; type: cell-based; details: Homo sapiens, JIMT-1 breast cancer cells, 72 hours, read-out: IC50, proliferation / cell viability of JIMT-1
# Procedure: As mentioned before, none of the available TACC3 inhibitors, such as KHS101 and SPL-B has yet advanced to the clinical studies. […] For this purpose, it was performed in-house screening of a series of small molecules by testing their anti-proliferative effects in breast cancer cells in which TACC3 is aberrantly expressed (Ma et al., 2003; Song et al., 2018). Specifically, JIMT-1 cell line was chosen for screening the effect of compounds in cell viability due to its high TACC3 protein level compared to other tested breast cancer cell lines as well as its in vivo tumorigenicity (Saatci et al., 2018; Tanner et al., 2004) (will be discussed in FIGS. 8 and 9-10, respectively).
# (§1) KHS101 and SPL-B were dissolved in 100% DMSO to yield a stock concentration of 50 mM. Newly synthesized molecules were dissolved in 100% DMSO to yield a stock concentration of 10 mM. For cell viability assay, JIMT-1 (3×10^3 cells/well), BT-474 T-DM1R (6×10^3 cells/well), MDA-MB-436 (4×10^3 cells/well), MDA-MB-157 (3×10^3 cells/well) and MCF-12A (5×10^3 cells/well) cells were seeded, and 24 hours after cell seeding inhibitor treatments were performed at different concentrations. Cell viability was measured 72 hours after treatment with Cell Titer Glo assay as recommended by the manufacturer.
# [4] = test system: JIMT-1, MDA-MB-436, MDA-MB-157 and BT-474 T-DM1R cell lines; assay: Cell viability assay (Cell Titer Glo), breast cancer cell line panel; type: cell-based, human; details: all cell lines tested, 72 hours, Cell Titer Glo (FIG. 6A)
# [5] = test system: normal breast epithelial cells, MCF-12A; assay: Cell viability assay, normal breast cell line; type: cell-based
# Procedure: Next, the specificity of BO-264 towards cancer cell lines over normal cells were tested.
# as §1
# [6] = target: T1, Purified TACC3 recombinant protein (Homo sapiens, UniProt Q9Y6A5); assay: Isothermal titration calorimetry (ITC); type: binding; details: 25° C.
# T1 construct: purchased Origene TP310754
# Procedure: Titrations were carried out using Microcal 200 equipment (GE Healthcare, Austria) at 25° C. For each titration, 10 injections were made with 6 min spacing. The reference power was set at 2 μcal/sec, and the sample cell was continuously stirred at 500 rpm. In order to assess the binding efficiency between drug and protein, background data obtained by protein injected into buffer alone was subtracted from the experimental isotherms. The data was analyzed using Origin 7 Software provided along with the ITC200, and binding parameters such as association constant (Ka), number of binding sites (N) and enthalpy (ΔH) were calculated.
# TACC3 = target: T2, TACC3 (Homo sapiens, UniProt Q9Y6A5); assay: Target engagement assay (drug-target stabilization with increased temperature); type: binding; details: JIMT-1 cells
# T2 construct: endogenous in cells; host or cells: JIMT-1
# JIMT-1 cells [7] = assay: Colony formation assay; type: cell-based, human; details: 12 days, versus other two inhibitors at the same doses (FIG. 6B)
# Procedure: For monolayer culture, single-cell suspensions of JIMT-1 cells (3×10^3 cells/well) were plated in a 12-well plate. […] For both experimental setups, the media were refreshed every 4 days, and cells were incubated for 12 days. Cells were then fixed with 2% paraformaldehyde for 15 min and stained with 1% crystal violet (Merck, Darmstadt, Germany) for 15 min at RT. Surviving colonies (composed of at least 50 cells) were counted with ImageJ software (NIH).
# [8] = test system: NCI-60 human cancer cell line panel; assay: NCI-60 cancer cell line panel five-dose screening (SRB); type: cell-based; details: read-out: GI50 (50% growth inhibition), NCI-60 five-dose screen, ~90% / almost all cell lines
# Procedure: Detailed screening methodology can be accessed from the National Cancer Institute webpage. Briefly, 24 h after cell seeding into 96-well plates, they were treated with 5-log M concentration range of the compound for 2 days. Cytotoxicity was assessed using sulphorhodamine B (SRB) assay.
# JIMT-1 xenografts = assay: Breast cancer xenograft experiments (JIMT-1 in mammary fat pad); type: in vivo, female athymic nude mice
# Procedure: Six-to-eight-week-old female athymic nude mice were housed with a temperature-controlled and 12-hour light/12-hour dark cycle environment. This study was carried out in accordance with Institutional Animal Care and Use Committee of Bilkent University and performed according to the institution's guidelines and animal research principles. For in vivo tumor growth, 4×10^6 JIMT-1 cells were prepared in 150 μl of 1:1 DMEM and Matrigel (Corning, N.Y., USA), v/v) and injected into the mammary fat pads (MFP) of female nude mice. Mouse weight and tumor volume were measure daily using calipers. Tumor volumes were calculated as length×width×0.5. Once the tumor volume had reached about 100 mm^3, xenografts were randomized into groups.
# [9] = Kinetic solubility in sodium phosphate buffer; type: physicochemical; details: sodium phosphate buffer pH 7.4, 25° C., 2 h
# [10] = Stability in human liver microsomes; type: in vitro ADME; details: HLM
# [11] = Stability in mouse liver microsomes; type: in vitro ADME; details: MLM
# [12] = Plasma protein binding by equilibrium dialysis; type: in vitro ADME; details: human, 37° C.
# [13] = 5 mg/kg (oral) every two days for 30 days (FIG. 9)
smiles,measurement,setting,value
"CC(C)CNc1ccnc(NCc2csc(-c3ccccc3)n2)n1 [KHS101, reference compound]","induction of mitotic arrest, DNA damage and apoptosis markers",JIMT-1 cells [1],at considerably higher doses; also recorded: only observed at very high doses
same,tumor growth of glioblastoma (GBM) xenografts,[2],suppressed
"COc1ccc(-c2cc(Nc3ccnc(N4CCOCC4)n3)on2)cc1 [BO-264, 3-(4-methoxyphenyl)-N-(2-morpholinopyrimidin-4-yl)isoxazol-5-amine]",IC50,[3],0.232 µM
same,IC50 values compared with KHS101 and SPL-B,[4],significantly lower IC50 values than the two available TACC3 inhibitors
same,inhibition at 10 µM,"[5]; Homo sapiens, MCF-12A, 72 h, read-out: growth inhibition of MCF-12A cells",< 50%
same,effect on normal breast cell line,[5]; normal breast cell line,minor effects
same,N (number of binding sites),[6],0.704
same,ΔH,[6],49290 kcal/mol
same,ΔS,[6],1.65E5 cal/mol/deg
same,K (association constant),[6]; titration of TACC3 into BO-264,6.23E8
same,TACC3-BO-264 binding,TACC3,validated
same,average colony number of JIMT-1 cells,JIMT-1 cells [7],significantly lower
same,"induction of mitotic arrest, DNA damage and apoptosis markers",JIMT-1 cells [1],at lower doses compared to other two TACC3 inhibitors; also recorded: in a dose-dependent manner
same,GI50,[8],< 1 µM
same,body weight of mice,JIMT-1 xenografts; 2 mg/kg (oral or i.v) or 5 mg/kg (oral) every two days for 30 days (FIG. 10B),did not have any negative effect
same,tumor growth rate compared with control group,JIMT-1 xenografts; 2 mg/kg i.v every two days for 30 days (FIG. 10A),decreased
same,tumor growth rate compared with control group,JIMT-1 xenografts; 2 mg/kg oral every two days for 30 days (FIG. 10A),decreased
same,body weight of mice,JIMT-1 xenografts; [13],no negative effects
same,tumor growth compared to SPL-B,JIMT-1 xenografts; [13],significant reduction of tumor growth
same,tumor growth rate compared with control group,JIMT-1 xenografts; 5 mg/kg (oral) every two days for 30 days (FIG. 10A),the most significant effect on tumor growth
same,tumor growth compared to vehicle-treated mice,JIMT-1 xenografts; 25 mg/kg oral for 23 days (FIG. 11A),very significant reduction of tumor growth
same,tumor weights compared to vehicle group,JIMT-1 xenografts; 25 mg/kg oral for 23 days (FIG. 11B),significantly lower
same,mice weight / tolerability,JIMT-1 xenografts; 25 mg/kg oral for 23 days (FIG. 11C),well tolerated
same,solubility,[9],low solubility
same,stability in human liver microsomes,[10],low stability
same,stability in mouse liver microsomes,[11],low stability
same,fraction unbound,[12],0.0113
